In patent publication US20260207623A1, “USE OF ESTETROL IN HEPATICALLY IMPAIRED PATIENTS” (ESTETRA SRL, priority 2022, published 2026):
Several values for one entry are separate records, joined by “and”; a condition that tells them apart may be missing. Equal values may be shown once. Read-outs that look alike come from different tables or passages of the source.

Test: Phase 1 pharmacokinetic study of a single oral dose of 20 mg E4 monohydrate in female subjects with normal hepatic function and mild, moderate or severe hepatic impairment (plasma, LC-MS/MS, non-compartmental analysis)
Type: in vivo, human
Settings: for AUC(0-t) / Cmax / half-life / Tmax / Vd/F / AUC(0-inf): female, human, plasma, po, 20 mg; for Tmax: read-out: Tmax, Median
Experimental: This was a Phase 1, multi-centre, open-label, PK, and safety study of a single oral dose of 20 mg E4 monohydrate in female subjects with normal hepatic function (Group 1), mild hepatic impairment (Group 2), moderate hepatic impairment (Group 3), and severe hepatic impairment (Group 4), as defined using the Child-Pugh classification at Screening.
The study consisted of an eligibility Screening period (within 28 days prior to study drug administration), an Assessment Period with in-house period and outpatient visits (including a single oral dose of 20 mg E4 on Day 1), and a follow up visit. All subjects were confined to the study site from Day-1 (the day before dosing) until Day 4 and returned to the site every day from Day 5 to Day 9. Alternatively, the subjects could stay for a prolonged in-house period in agreement with the Investigator. The follow-up visit occurred on Day 14 (+2 days).
All subjects arrived at the study site in the morning of Day-1 in a fasted state (no food for at least 8 h, water was allowed) to have the scheduled assessments performed in order to confirm eligibility as outlined in the inclusion and exclusion criteria (Section 2.3.1 and Section 2.3.2, respectively). In the morning of Day 1 following an overnight fast, the subjects received oral dosing of 20 mg E4 monohydrate and remained at the site. Study-related assessments were performed at time points indicated in the Schedule of Assessments in Table 2.
Serial blood sampling for PK assessments started on Day 1 and proceeded until Day 9 according to the Pharmacokinetic Sampling Schedule presented in Table 3.
Each enrolled subject was to receive a single oral dose of 20 mg of E4 (estetrol) as monohydrate as a film-coated tablet.
Study drug was administered to subjects in the morning after an overnight fast of at least 8 h.
Calculation of non-compartmental PK parameters were done using WinNonlin™ Professional, Version 6.3 or higher.
The primary PK parameters to be analyzed for E4 in plasma: • Cmax=maximum observed plasma concentration • AUCinf=area under the concentration-time curve (AUC) from time zero extrapolated to infinity
The analysis of E4 and the metabolites E4-3-glucuronide and E4-16-glucuronide in plasma samples were performed at the Bioanalytical Laboratory of the CRO using a validated liquid chromatography-mass spectrometry/mass spectrometry method.
Individual and mean plasma concentrations at each sampling time point for E4 are presented by listings and descriptive summary statistics including means, geometric means (GMs), medians, ranges, standard deviations (SD) and coefficients of variation (CV). Individual, mean and/or median concentrations per hepatic function group were plotted versus time on semilogarithmic scales.
PK parameters were calculated by non-compartmental analysis. PK parameters were analysed using descriptive statistics and are presented by hepatic function group.
Analysis of variance (ANOVA) were used to compare primary PK parameters of E4 (Cmax and AUCinf) between subjects with hepatic impairment and subjects with normal hepatic function in an exploratory approach, using the log-transformed value of each PK parameter as dependent variable, and the hepatic impairment group (normal, mild, moderate, and severe) as a fixed classification factor. Geometric least squares means were used to calculate the ratios of primary PK parameters for each hepatic impairment group to those in the control group, along with 90% confidence intervals (CIs).
Additionally, the impact of age and BMI on the effect of hepatic impairment were evaluated using an ANOVA model similar as the ANOVA model described above, but with the interaction between each factor and the hepatic impairment group included as an additional factor.
The relationship between log-transformed PK parameters (Cmax and AUCinf) and continuous parameters (albumin, total bilirubin, and prothrombin time) used for the Child-Pugh score was explored by a linear regression approach. […]

[1] = mild hepatic impairment, single oral dose 20 mg
[2] = moderate hepatic impairment, single oral dose 20 mg
[3] = severe hepatic impairment, single oral dose 20 mg

For `C[C@]12CC[C@@H]3c4ccc(O)cc4CC[C@H]3[C@@H]1[C@@H](O)[C@@H](O)[C@@H]2O` [E4, 1,3,5 (10)-estratrien-3,15alpha, 16alpha, 17beta-tetrol], the AUC(0-t) (Moderate hepatic impairment, single oral dose 20 mg E4 monohydrate, read-out: AUClast, Mean) was 122 ng·h/mL, the AUC(0-t) (Moderate hepatic impairment, single oral dose 20 mg E4 monohydrate, read-out: AUClast, Median) was 114 ng·h/mL and the Cmax (Moderate hepatic impairment, single oral dose 20 mg E4 monohydrate, read-out: Cmax, GM) was 39.4 ng/mL. It also gave a Cmax (Moderate hepatic impairment, single oral dose 20 mg E4 monohydrate, read-out: Cmax, Mean) of roughly 52 ng/mL, a Cmax (Moderate hepatic impairment, single oral dose 20 mg E4 monohydrate, read-out: Cmax, Median) of 41.1 ng/mL and a half-life (Moderate hepatic impairment, single oral dose 20 mg E4 monohydrate, read-out: T1/2, GM (converted)) of 14.8 h. The half-life (Moderate hepatic impairment, single oral dose 20 mg E4 monohydrate, read-out: T1/2, Mean (converted)) was 16.6 h, the half-life (Moderate hepatic impairment, single oral dose 20 mg E4 monohydrate, read-out: T1/2, Median (converted)) was 14.3 h and the Tmax (Moderate hepatic impairment, single oral dose 20 mg E4 monohydrate) was 0.5 h. For the same compound, the Vd/F (Moderate hepatic impairment, single oral dose 20 mg E4 monohydrate, read-out: Vz/F, GM) was 3960 L, the Vd/F (Moderate hepatic impairment, single oral dose 20 mg E4 monohydrate, read-out: Vz/F, Mean) was 4760 L and the Vd/F (Moderate hepatic impairment, single oral dose 20 mg E4 monohydrate, read-out: Vz/F, Median) was 4150 L. The AUC(0-inf) (Normal (Reference), one-way ANOVA, single oral dose 20 mg, read-out: AUCinf, Geometric LS Mean) was 104 ng·h/mL, the Cmax (Normal (Reference), one-way ANOVA, single oral dose 20 mg, read-out: Cmax, Geometric LS Mean) was 20.8 ng/mL and the AUC(0-t) (Normal hepatic function, single oral dose 20 mg E4 monohydrate, read-out: AUC0-24 h, GM) was 60.4 ng·h/mL. It also gave an AUC(0-t) (Normal hepatic function, single oral dose 20 mg E4 monohydrate, read-out: AUC0-24 h, Mean) of 63.5 ng·h/mL, an AUC(0-t) (Normal hepatic function, single oral dose 20 mg E4 monohydrate, read-out: AUC0-24 h, Median) of 63.8 ng·h/mL and an AUC(0-inf) (Normal hepatic function, single oral dose 20 mg E4 monohydrate, read-out: AUCinf, GM) of 104 ng·h/mL. It also gave an AUC(0-inf) (Normal hepatic function, single oral dose 20 mg E4 monohydrate, read-out: AUCinf, Mean) of 108 ng·h/mL, an AUC(0-inf) (Normal hepatic function, single oral dose 20 mg E4 monohydrate, read-out: AUCinf, Median) of 113 ng·h/mL and an AUC(0-t) (Normal hepatic function, single oral dose 20 mg E4 monohydrate, read-out: AUClast, GM) of 103 ng·h/mL. It also gave an AUC(0-t) (Normal hepatic function, single oral dose 20 mg E4 monohydrate, read-out: AUClast, Mean) of 107 ng·h/mL, an AUC(0-t) (Normal hepatic function, single oral dose 20 mg E4 monohydrate, read-out: AUClast, Median) of 111 ng·h/mL and a Cmax (Normal hepatic function, single oral dose 20 mg E4 monohydrate, read-out: Cmax, GM) of 20.8 ng/mL. It also gave a Cmax (Normal hepatic function, single oral dose 20 mg E4 monohydrate, read-out: Cmax, Mean) of roughly 24 ng/mL, a Cmax (Normal hepatic function, single oral dose 20 mg E4 monohydrate, read-out: Cmax, Median) of 24.8 ng/mL and a half-life (Normal hepatic function, single oral dose 20 mg E4 monohydrate, read-out: T1/2, GM (converted)) of 21.7 h. The half-life (Normal hepatic function, single oral dose 20 mg E4 monohydrate, read-out: T1/2, Mean (converted)) was 22.3 h, the half-life (Normal hepatic function, single oral dose 20 mg E4 monohydrate, read-out: T1/2, Median (converted)) was 22.7 h and the Tmax (Normal hepatic function, single oral dose 20 mg E4 monohydrate) was 0.475 h. For the same compound, the Vd/F (Normal hepatic function, single oral dose 20 mg E4 monohydrate, read-out: Vz/F, GM) was 6000 L, the Vd/F (Normal hepatic function, single oral dose 20 mg E4 monohydrate, read-out: Vz/F, Mean) was 6590 L and the Vd/F (Normal hepatic function, single oral dose 20 mg E4 monohydrate, read-out: Vz/F, Median) was 6430 L. It also gave an AUC(0-inf) (Severe (Test), one-way ANOVA, single oral dose 20 mg, read-out: AUCinf, Geometric LS Mean) of 198 ng·h/mL, a Cmax (Severe (Test), one-way ANOVA, single oral dose 20 mg, read-out: Cmax, Geometric LS Mean) of 111 ng/mL and an AUC(0-t) (Severe hepatic impairment, single oral dose 20 mg E4 monohydrate, read-out: AUC0-24 h, GM) of 179 ng·h/mL. For the same compound, the AUC(0-t) (Severe hepatic impairment, single oral dose 20 mg E4 monohydrate, read-out: AUC0-24 h, Mean) was 184 ng·h/mL, the AUC(0-t) (Severe hepatic impairment, single oral dose 20 mg E4 monohydrate, read-out: AUC0-24 h, Median) was 172 ng·h/mL and the AUC(0-inf) (Severe hepatic impairment, single oral dose 20 mg E4 monohydrate, read-out: AUCinf, GM) was 198 ng·h/mL. For the same compound, the AUC(0-inf) (Severe hepatic impairment, single oral dose 20 mg E4 monohydrate, read-out: AUCinf, Mean) was 205 ng·h/mL, the AUC(0-inf) (Severe hepatic impairment, single oral dose 20 mg E4 monohydrate, read-out: AUCinf, Median) was 180 ng·h/mL and the AUC(0-t) (Severe hepatic impairment, single oral dose 20 mg E4 monohydrate, read-out: AUClast, GM) was 196 ng·h/mL. It also gave an AUC(0-t) (Severe hepatic impairment, single oral dose 20 mg E4 monohydrate, read-out: AUClast, Mean) of 204 ng·h/mL, an AUC(0-t) (Severe hepatic impairment, single oral dose 20 mg E4 monohydrate, read-out: AUClast, Median) of 178 ng·h/mL and a Cmax (Severe hepatic impairment, single oral dose 20 mg E4 monohydrate, read-out: Cmax, GM) of 111 ng/mL. For the same compound, the Cmax (Severe hepatic impairment, single oral dose 20 mg E4 monohydrate, read-out: Cmax, Mean) was roughly 117 ng/mL, the Cmax (Severe hepatic impairment, single oral dose 20 mg E4 monohydrate, read-out: Cmax, Median) was 109 ng/mL and the half-life (Severe hepatic impairment, single oral dose 20 mg E4 monohydrate, read-out: T1/2, GM (converted)) was 8.22 h. For the same compound, the half-life (Severe hepatic impairment, single oral dose 20 mg E4 monohydrate, read-out: T1/2, Mean (converted)) was 8.97 h, the half-life (Severe hepatic impairment, single oral dose 20 mg E4 monohydrate, read-out: T1/2, Median (converted)) was 6.26 h and the Tmax (Severe hepatic impairment, single oral dose 20 mg E4 monohydrate) was 0.25 h. It also gave a Vd/F (Severe hepatic impairment, single oral dose 20 mg E4 monohydrate, read-out: Vz/F, GM) of 1200 L, a Vd/F (Severe hepatic impairment, single oral dose 20 mg E4 monohydrate, read-out: Vz/F, Mean) of 1260 L and a Vd/F (Severe hepatic impairment, single oral dose 20 mg E4 monohydrate, read-out: Vz/F, Median) of 1220 L. For the same compound, the “time to primary peak plasma concentration after administration” value (group of severe hepatic impairment) was no more than 15 min, the “time post dose until which concentrations remained above LLOQ in at least half of the subjects” value (mild hepatic impairment) was 144 h and the “time post-dose of last measurable concentration (Clast)” value (from here on “time post-dose”) (mild hepatic impairment, 192 h = last measured timepoint) was 192 h. The “GM AUCinf compared to the control group (normal hepatic function)” value (shortened to “GM AUCinf compared to the control group”) [1] was ~ 1.1 fold and 1.120 fold, the “GM Cmax compared to the control group (normal hepatic function)” value (“GM Cmax compared to the control group” for short) [1] was ~ 1.7 fold and 1.661 fold and the “time post dose until which concentrations remained above LLOQ in at least half of the subjects” value (moderate hepatic impairment) was 96 h. For the same compound, the “time post-dose” value (moderate hepatic impairment) was 144 h, the “GM AUCinf compared to the control group” value [2] was ~ 1.0 fold and 1.032 fold and the “GM Cmax compared to the control group” value [2] was ~ 1.9 fold and 1.896 fold. For the same compound, the “time post dose until which concentrations remained above LLOQ in at least half of the subjects” value (normal hepatic function) was 144 h, the “time post-dose” value (normal hepatic function, 192 h = last measured timepoint) was 192 h and the “time to primary peak plasma concentration after administration” value (on average, single oral dose 20 mg) was no more than 30 min. For the same compound, the “time post dose until which concentrations remained above LLOQ in at least half of the subjects” value (severe hepatic impairment) was 48 h, the “time post-dose” value (severe hepatic impairment) was 168 h and the “GM AUCinf compared to the control group” value [3] was ~ 1.9 fold and 1.894 fold. The “GM Cmax compared to the control group” value [3] was ~ 5.4 fold and 5.359 fold and the “time after which log-linear terminal elimination phase is entered” value (single oral dose 20 mg) was ~ 12 h.
